Here are results for 18 compounds from patent US11306078B2, “Piperidine CXCR7 receptor modulators” (IDORSIA PHARMACEUTICALS LTD., priority 2016, dated 2022).

This test deals with human chemokine receptor CXCR7 (Homo sapiens (Human), UniProt P25106). The test can be described thus: Tango CXCR7-bla U2OS beta-arrestin recruitment assay (beta-lactamase reporter, FRET), antagonism of CXCL12/SDF1-α.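 Note: compounds preincubated 15 min before CXCL12 addition, then 22 h at 37 °C, FRET emission ratio read with CCF4-AM substrate after 2 h.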 Type of test: cell-based. To be noted: antagonistic effect on CXCR7; Tango CXCR7-bla U2OS cells, CXCL12/SDF1-α at its EC80. In general terms: Activated receptors often draw arrestin, which recruitment assays turn into a signal.
Sequence of human chemokine receptor CXCR7 (P25106 whole entry): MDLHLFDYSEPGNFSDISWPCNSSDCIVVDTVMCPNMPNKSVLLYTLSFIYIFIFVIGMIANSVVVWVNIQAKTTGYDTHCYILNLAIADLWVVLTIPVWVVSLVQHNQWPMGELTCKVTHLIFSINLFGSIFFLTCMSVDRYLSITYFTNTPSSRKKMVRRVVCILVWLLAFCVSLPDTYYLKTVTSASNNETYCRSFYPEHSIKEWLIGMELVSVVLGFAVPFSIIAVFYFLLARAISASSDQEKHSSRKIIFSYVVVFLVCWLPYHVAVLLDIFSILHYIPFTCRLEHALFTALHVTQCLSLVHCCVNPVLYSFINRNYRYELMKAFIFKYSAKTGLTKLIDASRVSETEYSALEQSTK

As for `CN(CC1COC1)C(=O)[C@@H]1CN(C2CCCCC2)CC[C@H]1NC(=O)c1cc(-c2ccc(F)cc2F)on1` (racemic) [Example 1.039, rac-(3R*,4R*)-1-Cyclohexyl-4-{[5-(2,4-difluoro-phenyl)-isoxazole-3-carbonyl]-amino}-piperidine-3-carboxylic acid methyl-oxetan-3-ylmethyl-amide], the IC50 was found to be 492 nM.
`O=C(N[C@@H]1CCN(C2CCCCC2)C[C@H]1C(=O)NCCN1CCCC1=O)c1cc(-c2ccc(F)cc2F)on1` (racemic) [Example 1.041, rac-(3R*,4R*)-1-Cyclohexyl-4-{[5-(2,4-difluoro-phenyl)-isoxazole-3-carbonyl]-amino}-piperidine-3-carboxylic acid [2-(2-oxo-pyrrolidin-1-yl)-ethyl]-amide] showed an IC50 of 91 nM.
Take `Cn1ccc(CNC(=O)[C@@H]2CN(C3CCCCC3)CC[C@H]2NC(=O)c2cc(-c3ccc(F)cc3F)on2)n1` (racemic) [Example 1.042, rac-(3R*,4R*)-1-Cyclohexyl-4-{[5-(2,4-difluoro-phenyl)-isoxazole-3-carbonyl]-amino}-piperidine-3-carboxylic acid (1-methyl-1H-pyrazol-3-ylmetyl)-amide]: 532 nM corresponded to half-maximal inhibition (IC50).
The same measure for `O=C(N[C@@H]1CCN(C2CCCCC2)C[C@H]1C(=O)NCc1c[nH]cn1)c1cc(-c2ccc(F)cc2F)on1` (racemic) [Example 1.043, rac-(3R*,4R*)-1-Cyclohexyl-4-{[5-(2,4-difluoro-phenyl)-isoxazole-3-carbonyl]-amino}-piperidine-3-carboxylic acid (1H-imidazol-4-ylmethyl)-amide]: 843 nM; for `Cc1cc(CNC(=O)[C@@H]2CN(C3CCCCC3)CC[C@H]2NC(=O)c2cc(-c3ccc(F)cc3F)on2)nn1C` (racemic) [Example 1.045, rac-(3R*,4R*)-1-Cyclohexyl-4-{[5-(2,4-difluoro-phenyl)-isoxazole-3-carbonyl]-amino}-piperidine-3-carboxylic acid (1,5-dimethyl-1H-pyrazol-3-ylmethyl)-amide]: 565 nM; for `CCc1noc(CNC(=O)[C@@H]2CN(C3CCCCC3)CC[C@H]2NC(=O)c2cc(-c3ccc(F)cc3F)on2)n1` (racemic) [Example 1.047, rac-(3R*,4R*)-1-Cyclohexyl-4-{[5-(2,4-difluoro-phenyl)-isoxazole-3-carbonyl]-amino}-piperidine-3-carboxylic acid (3-ethyl-[1,2,4]oxadiazol-5-ylmethyl)-amide]: 127 nM.
The same measure for `O=C(N[C@@H]1CCN(C2CCCCC2)C[C@H]1C(=O)NCc1cccnc1)c1cc(-c2ccc(F)cc2F)on1` (racemic) [Example 1.048, rac-(3R*,4R*)-1-Cyclohexyl-4-{[5-(2,4-difluoro-phenyl)-isoxazole-3-carbonyl]-amino}-piperidine-3-carboxylic acid (pyridin-3-ylmethyl)-amide]: 275 nM; for `O=C(N[C@@H]1CCN(C2CCCCC2)C[C@H]1C(=O)NCc1nccs1)c1cc(-c2ccc(F)cc2F)on1` (racemic) [Example 1.051, rac-(3R*,4R*)-1-Cyclohexyl-4-{[5-(2,4-difluoro-phenyl)-isoxazole-3-carbonyl]-amino}-piperidine-3-carboxylic acid (thiazol-2-ylmethyl)-amide]: 49 nM; for `O=C(N[C@@H]1CCN(C2CCCCC2)C[C@H]1C(=O)N1CC(F)(F)C1)c1cc(-c2ccc(F)cc2F)on1` (racemic) [Example 1.052, rac-5-(2,4-Difluoro-phenyl)-isoxazole-3-carboxylic acid [(3R*,4R*)-1-cyclohexyl-3-(3,3-difluoro-azetidine-1-carbonyl)-piperidin-4-yl]-amide]: 630 nM.
Consider `Cc1cc(CNC(=O)[C@@H]2CN(C3CCCCC3)CC[C@H]2NC(=O)c2cc(-c3ccc(F)cc3F)on2)n(C)n1` (racemic) [Example 1.054, rac-(3R*,4R*)-1-Cyclohexyl-4-{[5-(2,4-difluoro-phenyl)-isoxazole-3-carbonyl]-amino}-piperidine-3-carboxylic acid (2,5-dimethyl-2H-pyrazol-3-ylmethyl)-amide], for which the IC50 is 311 nM.
The same measure for `CC(C)N(CCOCCO)C(=O)[C@@H]1CN(C2CCCCC2)CC[C@H]1NC(=O)c1cc(-c2ccc(F)cc2F)on1` (racemic) [Example 1.055, rac-(3R*,4R*)-1-Cyclohexyl-4-{[5-(2,4-difluoro-phenyl)-isoxazole-3-carbonyl]-amino}-piperidine-3-carboxylic acid [2-(2-hydroxy-ethoxy)-ethyl]-isopropyl-amide]: 232 nM; for `Cc1ccccc1CCNC(=O)[C@@H]1CN(C2CCCCC2)CC[C@H]1NC(=O)c1cc(-c2ccc(F)cc2F)on1` (racemic) [Example 1.056, rac-(3R*,4R*)-1-Cyclohexyl-4-{[5-(2,4-difluoro-phenyl)-isoxazole-3-carbonyl]-amino}-piperidine-3-carboxylic acid (2-o-tolyl-ethyl)-amide]: 4 nM.
On to `COc1ccccc1CCNC(=O)[C@@H]1CN(C2CCCCC2)CC[C@H]1NC(=O)c1cc(-c2ccc(F)cc2F)on1` (racemic) [Example 1.057, rac-(3R*,4R*)-1-Cyclohexyl-4-{[5-(2,4-difluoro-phenyl)-isoxazole-3-carbonyl]-amino}-piperidine-3-carboxylic acid [2-(2-methoxy-phenyl)-ethyl]-amide], for which the IC50 was 1 nM.
As to `O=C(N[C@@H]1CCN(C2CCCCC2)C[C@H]1C(=O)NCCc1ccccc1Cl)c1cc(-c2ccc(F)cc2F)on1` (racemic) [Example 1.058, rac-(3R*,4R*)-1-Cyclohexyl-4-{[5-(2,4-difluoro-phenyl)-isoxazole-3-carbonyl]-amino}-piperidine-3-carboxylic acid [2-(2-chloro-phenyl)-ethyl]-amide], half-maximal inhibition (IC50) required 1 nM.
The same measure for `O=C(N[C@@H]1CCN(C2CCCCC2)C[C@H]1C(=O)NCCc1ccc(F)cc1)c1cc(-c2ccc(F)cc2F)on1` (racemic) [Example 1.059, rac-(3R*,4R*)-1-Cyclohexyl-4-{[5-(2,4-difluoro-phenyl)-isoxazole-3-carbonyl]-amino}-piperidine-3-carboxylic acid [2-(4-fluoro-phenyl)-ethyl]-amide]: 140 nM; for `Cc1ccc(CCNC(=O)[C@@H]2CN(C3CCCCC3)CC[C@H]2NC(=O)c2cc(-c3ccc(F)cc3F)on2)cc1` (racemic) [Example 1.062, rac-(3R*,4R*)-1-Cyclohexyl-4-{[5-(2,4-difluoro-phenyl)-isoxazole-3-carbonyl]-amino}-piperidine-3-carboxylic acid (2-p-tolyl-ethyl)-amide]: 16 nM; for `Cc1nc(NC(=O)[C@@H]2CN(C3CCCCC3)CC[C@H]2NC(=O)c2cc(-c3ccc(F)cc3F)on2)sc1C` (racemic) [Example 1.065, rac-(3R*,4R*)-1-Cyclohexyl-4-{[5-(2,4-difluoro-phenyl)-isoxazole-3-carbonyl]-amino}-piperidine-3-carboxylic acid (4,5-dimethyl-thiazol-2-yl)-amide]: 567 nM.
Turning to `Cc1cccc(CCNC(=O)[C@@H]2CN(C3CCCCC3)CC[C@H]2NC(=O)c2cc(-c3ccc(F)cc3F)on2)c1` (racemic) [Example 1.066, rac-(3R*,4R*)-1-Cyclohexyl-4-{[5-(2,4-difluoro-phenyl)-isoxazole-3-carbonyl]-amino}-piperidine-3-carboxylic acid (2-m-tolyl-ethyl)-amide], the IC50 stood at 16 nM.

By IC50 is commonly meant the concentration at which inhibition is half-maximal. The low end stands for greater potency, the high end for weaker potency.
